Reference: patent publication US10844074B2, “Heterocycle compounds and uses thereof” (ZHEJIANG JIANFENG-YIEN BIOTECHNOLOGY CO., LTD., priority 2015, dated 2020)
One block for each compound: values may come before it.

Assays:
BTK = BTK (Homo sapiens, UniProt Q06187); assay: BTK Enzyme Assay; type: biochemical; conditions: 1 uM compound; read-out: BTK (% inh @ 1 uM)
Description: The following TABLE II lists compounds representative of the invention and their activity in BTK assays. In these assays, the following grading was used: A: >30% inhibition @1 μM; B: <30% inhibition @1 μM.

EGFR T790M = EGFR T790M (Homo sapiens, UniProt P00533, T790M); assay: EGFR Enzyme Assay; type: biochemical; conditions: 1 uM compound, read-out: T790M (% inh @ 1 uM)
Description: The following TABLE III lists compounds representative of the invention and their activity in EGFR assays. In these assays, the following grading was used: A: >50% @1 μM; B: <50% @ 1 μM.

EGFR T790M, sequence (P00533 25-1210 T790M): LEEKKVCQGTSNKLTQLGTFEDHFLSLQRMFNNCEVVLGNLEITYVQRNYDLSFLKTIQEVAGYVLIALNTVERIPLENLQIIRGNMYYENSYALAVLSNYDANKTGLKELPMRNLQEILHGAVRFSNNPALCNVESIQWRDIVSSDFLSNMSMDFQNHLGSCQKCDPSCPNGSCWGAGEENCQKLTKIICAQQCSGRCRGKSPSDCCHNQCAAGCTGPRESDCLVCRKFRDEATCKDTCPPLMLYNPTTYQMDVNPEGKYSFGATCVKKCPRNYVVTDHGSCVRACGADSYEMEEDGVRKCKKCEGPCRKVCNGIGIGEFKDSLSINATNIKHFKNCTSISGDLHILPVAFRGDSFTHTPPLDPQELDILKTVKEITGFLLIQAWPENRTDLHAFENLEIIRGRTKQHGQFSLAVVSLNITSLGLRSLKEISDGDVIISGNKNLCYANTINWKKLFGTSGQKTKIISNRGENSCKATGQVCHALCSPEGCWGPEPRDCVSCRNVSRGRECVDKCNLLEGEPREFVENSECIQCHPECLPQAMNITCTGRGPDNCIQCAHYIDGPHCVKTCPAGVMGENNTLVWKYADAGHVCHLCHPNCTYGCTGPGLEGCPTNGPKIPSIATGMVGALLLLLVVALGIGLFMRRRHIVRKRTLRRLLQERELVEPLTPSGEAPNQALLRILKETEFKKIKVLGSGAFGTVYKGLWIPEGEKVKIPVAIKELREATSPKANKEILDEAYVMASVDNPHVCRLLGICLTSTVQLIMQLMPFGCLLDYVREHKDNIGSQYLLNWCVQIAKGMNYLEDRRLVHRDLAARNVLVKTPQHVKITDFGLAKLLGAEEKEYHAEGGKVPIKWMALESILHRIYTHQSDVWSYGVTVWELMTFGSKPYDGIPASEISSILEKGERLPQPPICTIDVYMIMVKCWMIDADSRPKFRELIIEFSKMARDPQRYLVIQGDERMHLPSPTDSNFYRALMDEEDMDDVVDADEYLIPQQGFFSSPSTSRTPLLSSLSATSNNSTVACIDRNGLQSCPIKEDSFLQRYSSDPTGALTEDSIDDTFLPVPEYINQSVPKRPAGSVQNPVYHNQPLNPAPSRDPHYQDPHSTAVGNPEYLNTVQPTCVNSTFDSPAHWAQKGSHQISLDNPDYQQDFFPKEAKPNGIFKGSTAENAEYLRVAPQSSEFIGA
BTK, sequence (Q06187 whole entry): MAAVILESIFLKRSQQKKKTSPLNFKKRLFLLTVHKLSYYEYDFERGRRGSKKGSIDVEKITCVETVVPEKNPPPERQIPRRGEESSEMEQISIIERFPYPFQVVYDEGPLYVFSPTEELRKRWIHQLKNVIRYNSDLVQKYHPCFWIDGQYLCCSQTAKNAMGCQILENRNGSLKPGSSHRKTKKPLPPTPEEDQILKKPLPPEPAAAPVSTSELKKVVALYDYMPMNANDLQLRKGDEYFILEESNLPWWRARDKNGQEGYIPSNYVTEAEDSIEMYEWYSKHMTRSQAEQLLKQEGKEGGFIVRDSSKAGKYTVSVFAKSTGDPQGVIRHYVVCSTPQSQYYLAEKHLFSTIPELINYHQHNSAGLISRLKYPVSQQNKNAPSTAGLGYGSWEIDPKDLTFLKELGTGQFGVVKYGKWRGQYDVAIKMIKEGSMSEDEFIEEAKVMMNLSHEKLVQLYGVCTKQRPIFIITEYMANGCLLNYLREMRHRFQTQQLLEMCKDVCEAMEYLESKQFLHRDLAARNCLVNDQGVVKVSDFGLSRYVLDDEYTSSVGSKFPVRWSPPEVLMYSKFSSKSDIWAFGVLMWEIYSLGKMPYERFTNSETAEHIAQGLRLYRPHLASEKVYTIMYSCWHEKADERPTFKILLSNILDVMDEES

Structure (SMILES): C=CC(=O)Nc1cc(NC2=NC(c3cccc(NC)c3)C3SC=CC3=N2)c(OC)cc1N(C)CCN1CCOCC1 (stereo not drawn) [Compound 9, N-[4-methoxy-5-[[4-[3-(methylamino)phenyl]-4,4a-dihydrothieno[3,2-d]pyrimidin-2-yl]amino]-2-[methyl(2-morpholinoethyl)amino]phenyl]prop-2-enamide]
- inhibition at 1 µM (BTK): > 30%
- inhibition at 1 µM (EGFR T790M): < 50%

Structure (SMILES): C=CC(=O)Nc1cc(NC2=NC(c3cccc(N(C)C)c3)C3SC=CC3=N2)c(OC)cc1N1CCN(C)CC1 (stereo not drawn) [Compound 6, N-[5-[[4-[3-(dimethylamino)phenyl]-4,4a-dihydrothieno[3,2-d]pyrimidin-2-yl]amino]-4-methoxy-2-(4-methylpiperazin-1-yl)phenyl]prop-2-enamide]
- inhibition at 1 µM (BTK): > 30%
- inhibition at 1 µM (EGFR T790M): < 50%

Structure (SMILES): C=CC(=O)Nc1cc(Nc2nc(-c3cccc(N(C)C)c3)c3sccc3n2)c(OC)cc1N1CCN(C)CC1 [Compound 24, N-[5-[[4-[3-(dimethylamino)phenyl]thieno[3,2-d]pyrimidin-2-yl]amino]-4-methoxy-2-(4-methylpiperazin-1-yl)phenyl]prop-2-enamide]
- inhibition at 1 µM (BTK): > 30%
- inhibition at 1 µM (EGFR T790M): < 50%

Structure (SMILES): C=CC(=O)Nc1cc(NC2=NC(c3ccccc3)C3SC=CC3=N2)c(OC)cc1N1CCN(C)CC1 (stereo not drawn) [Compound 18, N-[4-methoxy-2-(4-methylpiperazin-1-yl)-5-[(4-phenyl-4,4a-dihydrothieno[3,2-d]pyrimidin-2-yl)amino]phenyl]prop-2-enamide]
- inhibition at 1 µM (BTK): < 30%
- inhibition at 1 µM (EGFR T790M): > 50%

Structure (SMILES): C=CC(=O)Nc1cc(Nc2nc(-c3c[nH]c4ccccc34)c3sccc3n2)c(OC)cc1N(C)CCN(C)C [Compound 1, N-[2-[2-(dimethylamino)ethyl-methyl-amino]-5-[[4-(1H-indol-3-yl)thieno[3,2-d]pyrimidin-2-yl]amino]-4-methoxy-phenyl]prop-2-enamide]
- inhibition at 1 µM (BTK): > 30%
- inhibition at 1 µM (EGFR T790M): > 50%

Structure (SMILES): C=CC(=O)Nc1cc(Nc2nc(-c3ccc(NC)cc3)c3sccc3n2)c(OC)cc1N1CCN(C)CC1 [Compound 25, N-[4-methoxy-5-[[4-[4-(methylamino)phenyl]thieno[3,2-d]pyrimidin-2-yl]amino]-2-(4-methylpiperazin-1-yl)phenyl]prop-2-enamide]
- inhibition at 1 µM (BTK): < 30%

Structure (SMILES): C=CC(=O)Nc1cc(Nc2nc(-c3cn(C)c4ccccc34)c3sccc3n2)c(OC)cc1N1CCN(C)CC1 [Compound 22, N-[4-methoxy-5-[[4-(1-methylindol-3-yl)thieno[3,2-d]pyrimidin-2-yl]amino]-2-(4-methylpiperazin-1-yl)phenyl]prop-2-enamide]
- inhibition at 1 µM (BTK): > 30%

Structure (SMILES): C=CC(=O)Nc1cc(Nc2nc(-c3c[nH]c4ccccc34)c3sccc3n2)c(OC)cc1N1CCC(N(C)C)CC1 [Compound 2, N-[2-[4-(dimethylamino)-1-piperidyl]-5-[[4-(1H-indol-3-yl)thieno[3,2-d]pyrimidin-2-yl]amino]-4-methoxy-phenyl]prop-2-enamide]
- inhibition at 1 µM (BTK): > 30%
- inhibition at 1 µM (EGFR T790M): > 50%

Structure (SMILES): C=CC(=O)Nc1cc(NC2=NC(c3cccc(OC)c3)C3SC=CC3=N2)c(OC)cc1N1CCC(N(C)C)CC1 (stereo not drawn) [Compound 20, N-[2-[4-(dimethylamino)-1-piperidyl]-4-methoxy-5-[[4-(3-methoxyphenyl)-4,4a-dihydrothieno[3,2-d]pyrimidin-2-yl]amino]phenyl]prop-2-enamide]
- inhibition at 1 µM (BTK): < 30%

Structure (SMILES): C=CC(=O)Nc1cc(NC2=NC(c3cccc(NC(C)(C)C)c3)C3SC=CC3=N2)c(OC)cc1N1CCOCC1 (stereo not drawn) [Compound 11, N-[5-[[4-[3-(tert-butylamino)phenyl]-4,4a-dihydrothieno[3,2-d]pyrimidin-2-yl]amino]-4-methoxy-2-morpholino-phenyl]prop-2-enamide]
- inhibition at 1 µM (BTK): > 30%

Now from value to compound:

- inhibition at 1 µM (BTK): > 30%
- inhibition at 1 µM (EGFR T790M): < 50%
Structure (SMILES): C=CC(=O)Nc1cc(Nc2nc(-c3ccccc3N(C)C)c3ccsc3n2)c(OC)cc1N1CCN(C)CC1 [Compound 50, N-[5-[[4-[2-(dimethylamino)phenyl]thieno[2,3-d]pyrimidin-2-yl]amino]-4-methoxy-2-(4-methylpiperazin-1-yl)phenyl]prop-2-enamide]

- inhibition at 1 µM (BTK): > 30%
- inhibition at 1 µM (EGFR T790M): > 50%
Structure (SMILES): C=CC(=O)Nc1cc(Nc2nc(-c3ccc(NC)cc3)c3sccc3n2)c(OC)cc1N1CCOCC1 [Compound 37, N-[4-methoxy-5-[[4-[4-(methylamino)phenyl]thieno[3,2-d]pyrimidin-2-yl]amino]-2-morpholino-phenyl]prop-2-enamide]

- inhibition at 1 µM (BTK): > 30%
- inhibition at 1 µM (EGFR T790M): < 50%
Structure (SMILES): C=CC(=O)Nc1cc(Nc2nc(-c3cn(C)c4ccccc34)c3sccc3n2)c(OC)cc1N1CCOCC1 [Compound 36, N-[4-methoxy-5-[[4-(1-methylindol-3-yl)thieno[3,2-d]pyrimidin-2-yl]amino]-2-morpholino-phenyl]prop-2-enamide]

- inhibition at 1 µM (BTK): > 30%
Structure (SMILES): C=CC(=O)Nc1cc(Nc2nc(-c3ccccc3)c3ccsc3n2)c(OC)cc1N(C)CCN(C)C [Compound 32, N-[2-[2-(dimethylamino)ethyl-methyl-amino]-4-methoxy-5-[(4-phenylthieno[2,3-d]pyrimidin-2-yl)amino]phenyl]prop-2-enamide]

- inhibition at 1 µM (BTK): < 30%
Structure (SMILES): C=CC(=O)Nc1cc(Nc2nc(-c3ccccc3NC)c3sccc3n2)c(OC)cc1N1CCN(C)CC1 [Compound 29, N-[4-methoxy-5-[[4-[2-(methylamino)phenyl]thieno[3,2-d]pyrimidin-2-yl]amino]-2-(4-methylpiperazin-1-yl)phenyl]prop-2-enamide]

- inhibition at 1 µM (BTK): < 30%
- inhibition at 1 µM (EGFR T790M): < 50%
Structure (SMILES): C=CC(=O)Nc1cc(Nc2nc(-c3ccccc3NC)c3ccsc3n2)c(OC)cc1N1CCN(C)CC1 [Compound 43, N-[4-methoxy-5-[[4-[2-(methylamino)phenyl]thieno[2,3-d]pyrimidin-2-yl]amino]-2-(4-methylpiperazin-1-yl)phenyl]prop-2-enamide]

- inhibition at 1 µM (BTK): > 30%
- inhibition at 1 µM (EGFR T790M): > 50%
Structure (SMILES): C=CC(=O)Nc1cc(Nc2nc(-c3cccc(NC)c3)c3ccsc3n2)c(OC)cc1N(C)CC [Compound 41, N-[2-[ethyl(methyl)amino]-4-methoxy-5-[[4-[3-(methylamino)phenyl]thieno[2,3-d]pyrimidin-2-yl]amino]phenyl]prop-2-enamide]

- inhibition at 1 µM (BTK): < 30%
- inhibition at 1 µM (EGFR T790M): > 50%
Structure (SMILES): C=CC(=O)Nc1cc(Nc2nc(-c3cccc(NC)c3)c3sccc3n2)c(OC)cc1OCCN1CCOCC1 [Compound 35, N-[4-methoxy-5-[[4-[3-(methylamino)phenyl]thieno[3,2-d]pyrimidin-2-yl]amino]-2-(2-morpholinoethoxy)phenyl]prop-2-enamide]

- inhibition at 1 µM (BTK): < 30%
- inhibition at 1 µM (EGFR T790M): < 50%
Structure (SMILES): C=CC(=O)Nc1cc(N(C)c2nc(-c3cn(C)c4ccccc34)c3sccc3n2)c(OC)cc1N1CCOCC1 [Compound 52, N-[4-methoxy-5-[methyl-[4-(1-methylindol-3-yl)thieno[3,2-d]pyrimidin-2-yl]amino]-2-morpholino-phenyl]prop-2-enamide]

- inhibition at 1 µM (BTK): < 30%
Structure (SMILES): C=CC(=O)Nc1cc(Nc2nc(-c3cccc(NC)c3)c3ccsc3n2)c(OC)cc1N(C)CCN(C)C [Compound 33, N-[2-[2-(dimethylamino)ethyl-methyl-amino]-4-methoxy-5-[[4-[3-(methylamino)phenyl]thieno[2,3-d]pyrimidin-2-yl]amino]phenyl]prop-2-enamide]
